Measurements: ChEMBL document CHEMBL5465560, “Selectivity Literature for EUbOPEN Chemogenomic Library” (2024)

What was measured:
[1] = target: Tyrosine-protein kinase Lyn (Homo sapiens, UniProt P07948); experiment: Selectivity interaction (KinaseProfiler screening (Millipore)) EUB0000601a LYN; settings: at 3 µM
[2] = target: Calcium/calmodulin-dependent protein kinase type II subunit alpha (Homo sapiens, UniProt Q9UQM7); experiment: Selectivity interaction (KinomeScan (DiscoverX)) EUB0000229b CAMK2A; settings: at 10 µM
[3] = target: Ribosomal protein S6 kinase alpha-3 (Homo sapiens, UniProt P51812); experiment: Selectivity interaction (Kinase panel (KiNativ target engagement assay in Jurkat cells)) EUB0001635a RPS6KA3; assay type: cell-based; settings: Selectivity number of off-targets 0.0, Selectivity number of targets 233.0, Source Knowledge https://www.sciencedirect.com/science/article/pii/S2451945619300674?via%3Dihub, at 1 µM
[4] = target: Receptor-type tyrosine-protein kinase FLT3 (Homo sapiens) (UniProt P36888); experiment: Selectivity interaction (Kinase panel (Invitrogen)) EUB0000639a FLT3; settings: at 200 nM
[5] = target: Aurora kinase B (Homo sapiens, UniProt Q96GD4); experiment: Selectivity interaction (ActivX KiNativ screen (kinase selectivity in THP-1 cell lysates)) EUB0000639a AURKB; assay type: subcellular; settings: lysate, at 0.04 µM
[6] = target: Interleukin-1 receptor-associated kinase 1 (Homo sapiens) (UniProt P51617); experiment: Selectivity interaction (Ambit KINOMEscan and KiNATiv profiling in Jurkat cells) EUB0000090b IRAK1; assay type: cell-based; settings: at 1 µM
[7] = target: T1, Mitogen-activated protein kinase kinase kinase 5 (Homo sapiens) (UniProt Q99683); experiment: Selectivity interaction (KinomeScan (DiscoverX)) EUB0000045b MAP3K5
T1 sequence (whole entry): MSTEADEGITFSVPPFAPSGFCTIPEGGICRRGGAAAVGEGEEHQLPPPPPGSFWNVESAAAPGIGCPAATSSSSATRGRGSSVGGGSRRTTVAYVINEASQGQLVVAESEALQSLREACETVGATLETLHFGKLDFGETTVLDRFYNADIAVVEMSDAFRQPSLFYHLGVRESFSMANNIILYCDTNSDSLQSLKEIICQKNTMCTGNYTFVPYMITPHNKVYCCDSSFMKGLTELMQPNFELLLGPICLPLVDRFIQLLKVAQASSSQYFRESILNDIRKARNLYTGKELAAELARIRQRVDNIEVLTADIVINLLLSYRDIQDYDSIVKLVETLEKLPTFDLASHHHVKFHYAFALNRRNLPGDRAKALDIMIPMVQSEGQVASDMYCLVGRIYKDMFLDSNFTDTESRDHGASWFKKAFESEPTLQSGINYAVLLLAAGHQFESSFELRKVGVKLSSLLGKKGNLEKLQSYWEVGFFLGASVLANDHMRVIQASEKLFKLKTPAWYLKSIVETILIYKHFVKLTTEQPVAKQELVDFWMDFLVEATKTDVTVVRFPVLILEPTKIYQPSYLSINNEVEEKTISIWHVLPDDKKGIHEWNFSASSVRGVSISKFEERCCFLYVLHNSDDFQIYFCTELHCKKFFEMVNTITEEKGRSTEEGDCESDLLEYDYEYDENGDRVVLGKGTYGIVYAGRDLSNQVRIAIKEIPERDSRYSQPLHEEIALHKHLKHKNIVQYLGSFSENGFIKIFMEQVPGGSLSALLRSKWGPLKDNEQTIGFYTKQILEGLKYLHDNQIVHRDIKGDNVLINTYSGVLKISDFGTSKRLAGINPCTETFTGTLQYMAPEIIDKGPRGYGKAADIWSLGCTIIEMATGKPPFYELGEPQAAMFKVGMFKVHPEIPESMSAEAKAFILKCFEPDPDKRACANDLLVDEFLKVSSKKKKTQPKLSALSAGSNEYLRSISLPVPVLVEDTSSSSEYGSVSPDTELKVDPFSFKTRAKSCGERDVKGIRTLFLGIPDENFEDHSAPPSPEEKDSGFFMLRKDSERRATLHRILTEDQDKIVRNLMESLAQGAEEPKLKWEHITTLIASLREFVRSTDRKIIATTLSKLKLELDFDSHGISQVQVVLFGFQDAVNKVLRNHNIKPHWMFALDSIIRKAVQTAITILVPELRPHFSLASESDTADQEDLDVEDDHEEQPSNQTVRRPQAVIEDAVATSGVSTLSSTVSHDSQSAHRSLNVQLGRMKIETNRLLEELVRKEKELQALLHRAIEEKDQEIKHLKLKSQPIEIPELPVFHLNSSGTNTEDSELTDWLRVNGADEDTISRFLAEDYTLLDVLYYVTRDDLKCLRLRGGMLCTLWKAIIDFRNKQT

Sequence of Calcium/calmodulin-dependent protein kinase type II subunit alpha (Q9UQM7 whole entry): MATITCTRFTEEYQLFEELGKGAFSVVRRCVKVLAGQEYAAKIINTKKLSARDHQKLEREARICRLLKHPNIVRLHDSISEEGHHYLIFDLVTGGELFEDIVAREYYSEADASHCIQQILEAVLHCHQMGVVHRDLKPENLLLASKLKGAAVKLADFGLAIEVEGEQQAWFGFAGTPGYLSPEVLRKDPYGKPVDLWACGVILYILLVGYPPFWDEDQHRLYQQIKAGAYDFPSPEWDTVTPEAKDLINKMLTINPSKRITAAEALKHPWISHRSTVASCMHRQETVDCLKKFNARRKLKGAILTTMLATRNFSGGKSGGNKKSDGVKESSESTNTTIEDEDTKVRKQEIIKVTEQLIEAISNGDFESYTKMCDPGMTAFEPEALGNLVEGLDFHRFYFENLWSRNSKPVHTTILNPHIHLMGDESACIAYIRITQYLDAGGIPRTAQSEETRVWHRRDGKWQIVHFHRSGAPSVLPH
Sequence of Receptor-type tyrosine-protein kinase FLT3 (Homo sapiens) (P36888 whole entry): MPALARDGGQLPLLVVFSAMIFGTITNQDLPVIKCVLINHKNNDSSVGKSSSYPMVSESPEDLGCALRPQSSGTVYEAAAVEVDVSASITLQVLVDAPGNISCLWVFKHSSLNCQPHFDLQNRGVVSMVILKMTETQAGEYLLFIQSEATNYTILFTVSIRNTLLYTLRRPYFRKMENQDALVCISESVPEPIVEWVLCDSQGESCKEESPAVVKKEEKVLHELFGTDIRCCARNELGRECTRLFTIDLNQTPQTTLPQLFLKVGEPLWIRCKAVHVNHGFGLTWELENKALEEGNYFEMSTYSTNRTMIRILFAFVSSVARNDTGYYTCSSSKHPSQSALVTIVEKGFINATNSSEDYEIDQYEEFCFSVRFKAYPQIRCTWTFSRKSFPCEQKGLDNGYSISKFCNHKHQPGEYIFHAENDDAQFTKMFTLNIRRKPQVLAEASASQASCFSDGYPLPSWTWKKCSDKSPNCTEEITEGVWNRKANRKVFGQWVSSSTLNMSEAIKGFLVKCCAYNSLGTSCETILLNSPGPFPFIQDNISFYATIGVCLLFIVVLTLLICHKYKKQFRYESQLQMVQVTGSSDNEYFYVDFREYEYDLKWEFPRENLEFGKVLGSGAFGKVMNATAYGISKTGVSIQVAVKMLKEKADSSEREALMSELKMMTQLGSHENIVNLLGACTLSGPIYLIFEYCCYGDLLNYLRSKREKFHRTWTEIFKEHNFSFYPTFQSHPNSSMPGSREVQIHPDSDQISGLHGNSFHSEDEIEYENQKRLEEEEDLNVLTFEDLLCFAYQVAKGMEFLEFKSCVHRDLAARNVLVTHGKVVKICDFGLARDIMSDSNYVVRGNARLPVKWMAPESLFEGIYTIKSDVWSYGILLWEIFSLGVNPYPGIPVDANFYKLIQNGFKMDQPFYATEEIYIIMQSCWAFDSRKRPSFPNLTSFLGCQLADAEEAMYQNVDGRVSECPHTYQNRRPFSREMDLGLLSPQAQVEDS
Sequence of Interleukin-1 receptor-associated kinase 1 (Homo sapiens) (P51617 whole entry, looked up): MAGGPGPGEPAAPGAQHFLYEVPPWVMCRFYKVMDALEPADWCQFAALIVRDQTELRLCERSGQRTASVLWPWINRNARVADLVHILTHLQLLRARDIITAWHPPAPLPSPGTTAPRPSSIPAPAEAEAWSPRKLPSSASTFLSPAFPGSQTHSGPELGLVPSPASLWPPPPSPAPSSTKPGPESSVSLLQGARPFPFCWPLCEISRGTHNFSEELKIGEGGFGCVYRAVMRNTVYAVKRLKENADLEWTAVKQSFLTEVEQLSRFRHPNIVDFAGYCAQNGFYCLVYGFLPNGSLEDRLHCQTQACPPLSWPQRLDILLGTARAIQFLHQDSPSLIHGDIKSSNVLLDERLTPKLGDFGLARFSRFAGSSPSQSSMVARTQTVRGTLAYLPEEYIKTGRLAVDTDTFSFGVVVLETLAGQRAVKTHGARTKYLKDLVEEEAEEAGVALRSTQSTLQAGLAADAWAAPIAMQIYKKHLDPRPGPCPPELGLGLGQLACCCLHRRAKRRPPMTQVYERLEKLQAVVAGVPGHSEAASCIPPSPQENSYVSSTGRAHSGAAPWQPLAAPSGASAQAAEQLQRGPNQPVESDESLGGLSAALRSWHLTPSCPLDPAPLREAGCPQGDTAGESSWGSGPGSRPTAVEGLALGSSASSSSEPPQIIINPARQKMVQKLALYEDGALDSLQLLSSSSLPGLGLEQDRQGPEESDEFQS
Sequence of Aurora kinase B (Q96GD4 whole entry): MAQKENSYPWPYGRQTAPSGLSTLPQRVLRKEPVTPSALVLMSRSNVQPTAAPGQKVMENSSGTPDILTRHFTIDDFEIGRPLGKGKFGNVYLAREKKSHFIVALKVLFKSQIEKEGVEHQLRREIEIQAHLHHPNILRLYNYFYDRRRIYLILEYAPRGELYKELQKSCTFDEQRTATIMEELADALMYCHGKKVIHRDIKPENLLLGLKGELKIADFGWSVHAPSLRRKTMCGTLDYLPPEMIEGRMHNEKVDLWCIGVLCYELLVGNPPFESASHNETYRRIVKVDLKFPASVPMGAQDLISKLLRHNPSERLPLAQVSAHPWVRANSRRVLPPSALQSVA
Sequence of Ribosomal protein S6 kinase alpha-3 (P51812 whole entry): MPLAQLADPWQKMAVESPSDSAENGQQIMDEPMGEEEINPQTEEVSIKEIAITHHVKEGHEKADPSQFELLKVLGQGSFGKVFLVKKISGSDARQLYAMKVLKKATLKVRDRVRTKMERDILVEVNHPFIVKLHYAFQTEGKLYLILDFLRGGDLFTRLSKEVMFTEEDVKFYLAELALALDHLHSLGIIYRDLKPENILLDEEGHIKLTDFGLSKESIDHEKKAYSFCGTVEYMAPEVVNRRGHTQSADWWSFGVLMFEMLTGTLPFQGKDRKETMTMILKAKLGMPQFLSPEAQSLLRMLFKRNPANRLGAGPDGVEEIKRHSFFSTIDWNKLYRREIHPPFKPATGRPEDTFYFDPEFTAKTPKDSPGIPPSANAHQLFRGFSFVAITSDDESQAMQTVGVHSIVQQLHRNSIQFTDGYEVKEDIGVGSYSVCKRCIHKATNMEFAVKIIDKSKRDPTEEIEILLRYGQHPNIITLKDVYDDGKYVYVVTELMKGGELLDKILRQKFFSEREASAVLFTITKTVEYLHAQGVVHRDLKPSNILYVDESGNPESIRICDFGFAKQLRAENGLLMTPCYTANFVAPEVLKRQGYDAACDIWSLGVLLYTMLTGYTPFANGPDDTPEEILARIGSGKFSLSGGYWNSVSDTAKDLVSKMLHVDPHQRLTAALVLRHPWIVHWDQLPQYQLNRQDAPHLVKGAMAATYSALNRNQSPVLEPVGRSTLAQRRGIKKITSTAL
Sequence of Tyrosine-protein kinase Lyn (P07948 2-512 limits assumed): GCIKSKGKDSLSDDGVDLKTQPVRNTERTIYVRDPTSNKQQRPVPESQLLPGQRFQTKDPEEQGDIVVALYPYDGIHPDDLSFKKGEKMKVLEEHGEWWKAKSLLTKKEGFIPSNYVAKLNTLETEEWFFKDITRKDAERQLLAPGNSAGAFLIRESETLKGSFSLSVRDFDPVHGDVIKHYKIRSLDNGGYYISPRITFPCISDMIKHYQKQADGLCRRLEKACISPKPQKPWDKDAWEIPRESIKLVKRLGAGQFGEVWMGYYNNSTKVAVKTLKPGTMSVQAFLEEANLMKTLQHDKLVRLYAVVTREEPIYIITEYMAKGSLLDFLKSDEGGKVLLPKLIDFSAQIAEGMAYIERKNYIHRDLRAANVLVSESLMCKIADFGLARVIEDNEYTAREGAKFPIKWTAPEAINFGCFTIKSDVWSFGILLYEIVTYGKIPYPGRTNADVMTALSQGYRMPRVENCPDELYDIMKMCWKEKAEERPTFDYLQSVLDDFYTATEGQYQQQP

SMILES: CCc1cc(Nc2nccc(-c3c(-c4ccc(OC)c(C(=O)Nc5c(F)cccc5F)c4)nc4ccccn34)n2)c(OC)cc1N1CCC(N2CCN(S(C)(=O)=O)CC2)CC1
- % of inhibition [1]: 37%

SMILES: COc1cc(N(C)c2ccnc3ccc(C(F)(F)F)cc23)cc(OC)c1OC
- % binding [2]: 77%

SMILES: C=CC(=O)Nc1ccc(C(=O)Nc2[nH]nc3c2CN(C(=O)N[C@H](CN(C)C)c2ccccc2)C3(C)C)cc1
- % of engagement [3]: 12%

SMILES: CC[C@@H]1[C@H](F)C(=O)N[C@@H]1COc1nccc2cc(C(N)=O)c(OC)cc12 [ZIMLOVISERTIB]
- % of inhibition [4]: 29.4%
- % of inhibition [5]: -1.3%

SMILES: CN(C)C/C=C/C(=O)Nc1ccc(C(=O)N2CCCC(Nc3ncc(Cl)c(-c4c[nH]c5ccccc45)n3)C2)cc1 (stereo not drawn)
- % of control [6]: 97%

SMILES: C=CC(=O)Nc1cc(-n2c(=O)ccc3cnc4ccc(-c5ccc(NS(C)(=O)=O)cc5)cc4c32)ccc1C
- % of control ([7]; at 1 µM): 100%
- % of control ([7]; at 10 µM): 100%
